Reference: patent publication US9890146B2, “Compound having selective EP2 agonist activity” (ONO PHARMACEUTICAL CO., LTD., priority 2014, dated 2018)
Read-outs that look alike come from different tables or passages of the source.

Biological target: T1, human EP2 (Homo sapiens, UniProt P43116)
T1 construct: expressed in transfected cells; host or cells: CHO cells (EP2-CHO)
Test: Measurement of EP2 agonist activity (measurement of cAMP concentration)
Format: cell-based
Protocol: Using Chem1 cells or CHO cells in which various prostanoid receptors were forcibly expressed, respectively, agonist activities of test compounds on various prostanoid receptors was determined employing, as a measure, an intracellular cyclic AMP (hereinbelow, abbreviated as “cAMP”) production amount or an intracellular calcium concentration.
The test compound and a control substance (PGE2 and PGF2α) were dissolved in dimethyl sulfoxide (DMSO) to prepare a 10 mmol/L solution. The 10 mmol/L solution thus prepared was thawed upon use, then serially diluted with DMSO, and then diluted with a buffer solution for measurement use or a buffer solution for measurement use 2, and then the resulting solution was subjected to an experiment.
Cells forcibly expressing various prostanoid receptors were standing-cultured at 37° C. in the presence of 5% CO2 using a DMEM medium (Sigma) (for culturing FP-Chem1) containing inactivated (56° C., 30 minutes) 9.8 vol % nondialysed-FBS (Life Technologies), 1 vol % Non Essential Amino Acids (Life Technologies), 10 mmol/L HEPES Buffer Solution (Life Technologies), 0.5 vol % GENETICIN (Life Technologies) and 1% penicillin-streptomycin (Life Technologies) or an α-MEM medium (Sigma) (for culturing EP2-CHO) containing inactivated (56° C., 30 minutes) 9.8 vol % dialysed-FBS (Life Technologies) and penicillin-streptomycin-glutamine (Life Technologies). Subculturing was carried out by the following manner.
The medium was removed, and washed with a phosphate-buffered physiological saline not containing Ca^2+ and Mg^2+ one time. A proper amount of trypsin-EDTA (Life Technologies) was added, and this was incubated at room temperature, cells were peeled, and a medium having a volume which is 10-fold a volume of trypsin-EDTA was added to stop an enzymatic reaction. After cells were recovered into a centrifuging tube, and centrifuged at room temperature for 3 minutes at 120 g, the supernatant was removed. Cells were suspended in a proper amount of a medium, and seeded in a culturing flask.
On the measurement day, a medium was removed, and EP2-CHO was washed with a phosphate-buffered physiological saline containing 2 mmol/L EDTA and not containing Ca^2+ and Mg^2+ one time. A proper amount of the phosphate-buffered physiological saline containing 2 mmol/L EDTA and not containing Ca^2+ and Mg^2+ was added, this was incubated at 37° C. in the presence of 5% CO2, cells were peeled, cells were recovered into a centrifuging tube, and centrifuged at room temperature for 3 minutes at 550 g, and the supernatant was removed. Cells were suspended in a proper amount of a buffer solution for measurement 1 (MEM medium (Invitrogen) containing 1.0 w/v % bovine serum albumin (Sigma) and 2 μmol/L diclofenac (Sigma)), and centrifuged at room temperature for 3 minutes at 200 g, and the supernatant was removed. Cells were suspended in a buffer solution for measurement 2 (MEM medium (Invitrogen) containing 1.0 w/v % bovine serum albumin (Sigma), 2 μmol/L diclofenac (Sigma) and 1 mmol/L 3-isobutyl-1-methylxanthine), and each 25 μL of the suspension was dispensed into a 96-well ½ area plate so that the cell number per well became […]. A buffer solution for measurement 2 (25 μL) containing an agonist at a variety of concentrations was added to carry out a reaction at room temperature for 30 minutes. Measurement of a cAMP concentration was carried out using the cAMP HTRF HiRange kit (CIS bio International). According to the two step protocol of the kit manual, each 25 μL of cAMP-D2 and Cryptase diluted with a lysis buffer were added, and this was incubated at room temperature for 1 hour. After incubation for 1 hour, time resolution fluorescence at 620 nm and 660 nm when excited at 340 nm was measured using SpectraMax M5e (Molecular Device), and a ratio (TRF ratio) was obtained, thereby, a cAMP concentration was calculated from a calibration line. […]

[1] = EP2-CHO cells, cAMP production (HTRF), reaction 30 minutes at room temperature, read-out: EP2 agonist activity EC50
[2] = prior-art compounds having an analogous structure, same EP2 test, read-out: EP2 agonist activities, EC50 values

T1 sequence (P43116 whole entry): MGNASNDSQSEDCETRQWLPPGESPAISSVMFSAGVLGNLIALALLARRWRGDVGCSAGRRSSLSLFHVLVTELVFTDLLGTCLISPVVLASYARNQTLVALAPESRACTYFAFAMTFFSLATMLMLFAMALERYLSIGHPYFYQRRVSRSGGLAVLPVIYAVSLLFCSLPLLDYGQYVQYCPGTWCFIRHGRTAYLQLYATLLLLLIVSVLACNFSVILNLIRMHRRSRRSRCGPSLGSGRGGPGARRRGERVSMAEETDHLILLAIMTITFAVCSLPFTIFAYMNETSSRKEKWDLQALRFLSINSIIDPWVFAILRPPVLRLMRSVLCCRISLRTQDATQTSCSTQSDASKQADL

Structure (SMILES)	EC50 [1]	EC50 [2]
CCc1cc(OC[C@@H]2[C@H]3CC[C@H](c4nc(C(=O)O)cs4)O[C@H]3C[C@@H]2O)ccc1C [9(4), 2-{(2R,4aR,5S,6S,7aS)-5-[(3-ethyl-4-methylphenoxy)methyl]-6-hydroxyoctahydrocyclopenta[b]pyran-2-yl}-1,3-thiazole-4-carboxylic acid]	0.33 nM	–
Cc1ccc(OC[C@@H]2[C@H]3CC[C@H](c4nc(C(=O)O)cs4)O[C@H]3C[C@H]2O)cc1C [1(7), 2-{(2R,4aR,5S,6R,7aS)-5-[(3,4-dimethylphenoxy)methyl]-6-hydroxyoctahydrocyclopenta[b]pyran-2-yl}-1,3-thiazole-4-carboxylic acid]	3.3 nM	–
CSc1cc(OC[C@@H]2[C@H]3CC[C@H](c4nc(C(=O)O)cs4)O[C@H]3C[C@@H]2O)ccc1C [9(25)]	0.074 nM	–
O=C(O)c1csc([C@H]2CC[C@@H]3[C@@H](COc4ccc5c(c4)CCCC5)[C@@H](O)C[C@@H]3O2)n1 [9(12), 2-{(2R,4aR,5S,6S,7aS)-6-hydroxy-5-[(5,6,7,8-tetrahydro-2-naphthalenyloxy)methyl]octahydrocyclopenta[b]pyran-2-yl}-1,3-thiazole-4-carboxylic acid]	6.4 nM	–
O=C(O)c1csc([C@H]2CC[C@@H]3[C@@H](COc4ccc5c(c4)CCC5)[C@H](O)C[C@@H]3O2)n1 [1(6), 2-{(2R,4aR,5S,6R,7aS)-5-[(2,3-dihydro-1H-inden-5-yloxy)methyl]-6-hydroxyoctahydrocyclopenta[b]pyran-2-yl}-1,3-thiazole-4-carboxylic acid]	7.5 nM	–
O=C(O)c1csc([C@H]2CC[C@@H]3[C@@H](COc4ccc5ccoc5c4)[C@H](O)C[C@@H]3O2)n1 [1(16), 2-{(2R,4aR,5S,6R,7aS)-5-[(1-benzofuran-6-yloxy)methyl]-6-hydroxyoctahydrocyclopenta[b]pyran-2-yl}-1,3-thiazole-4-carboxylic acid]	5.5 nM	–
O=C(O)c1csc([C@H]2CC[C@@H]3[C@@H](COc4cccc5c4CCC5)[C@H](O)C[C@@H]3O2)n1 [1(13), 2-{(2R,4aR,5S,6R,7aS)-5-[(2,3-dihydro-1H-inden-4-yloxy)methyl]-6-hydroxyoctahydrocyclopenta[b]pyran-2-yl}-1,3-thiazole-4-carboxylic acid]	1.1 nM	–
O=C(O)c1csc([C@H]2CC[C@@H]3[C@@H](/C=C/[C@@H](O)COc4ccccc4)[C@H](O)C[C@@H]3OC2)n1 [reference compound]	–	≥ 10000 nM
CCCCC[C@H](O)/C=C/[C@@H]1[C@H]2CCC(c3ccccc3CC(=O)O)O[C@H]2C[C@H]1O (stereo partly drawn) [reference compound]	–	≥ 10000 nM
Cc1ccc(OC[C@@H]2[C@H]3CC[C@H](c4nc(C(=O)O)cs4)O[C@H]3C[C@@H]2O)cc1Cl [9(3), 2-{(2R,4aR,5S,6S,7aS)-5-[(3-chloro-4-methylphenoxy)methyl]-6-hydroxyoctahydrocyclopenta[b]pyran-2-yl}-1,3-thiazole-4-carboxylic acid]	0.16 nM	–
O=C(O)c1csc([C@H]2CC[C@@H]3[C@@H](COc4ccccc4)[C@H](O)C[C@@H]3O2)n1 [1(27), 2-[(2R,4aR,5S,6R,7aS)-6-hydroxy-5-(phenoxymethyl)octahydrocyclopenta[b]pyran-2-yl]-1,3-thiazole-4-carboxylic acid]	12 nM	–
O=C(O)c1csc([C@H]2CC[C@@H]3[C@@H](COc4ccc5[nH]ccc5c4)[C@H](O)C[C@@H]3O2)n1 [1(12), 2-{(2R,4aR,5S,6R,7aS)-6-hydroxy-5-[(1H-indol-5-yloxy)methyl]octahydrocyclopenta[b]pyran-2-yl}-1,3-thiazole-4-carboxylic acid]	19 nM	–
O=C(O)c1csc([C@H]2CC[C@@H]3[C@@H](COc4ccc(Cl)c(C5CC5)c4)[C@H](O)C[C@@H]3O2)n1 [1(22), 2-{(2R,4aR,5S,6R,7aS)-5-[(4-chloro-3-cyclopropylphenoxy)methyl]-6-hydroxyoctahydrocyclopenta[b]pyran-2-yl}-1,3-thiazole-4-carboxylic acid]	2.3 nM	–
O=C(O)c1csc([C@H]2CC[C@@H]3[C@@H](COc4ccc5c(c4F)CCC5)[C@@H](O)C[C@@H]3O2)n1 [9(5), 2-[(2R,4aR,5S,6S,7aS)-5-{[(4-fluoro-2,3-dihydro-1H-inden-5-yl)oxy]methyl}-6-hydroxyoctahydrocyclopenta[b]pyran-2-yl]-1,3-thiazole-4-carboxylic acid]	0.91 nM	–
O=C(O)c1ccc(C2=CC[C@@H]3[C@@H](/C=C/[C@@H](O)C4CCCC4)[C@H](O)C[C@@H]3O2)o1 [reference compound]	–	≥ 10000 nM
CCc1ccc(OC[C@@H]2[C@H]3CC[C@H](c4nc(C(=O)O)cs4)O[C@H]3C[C@@H]2O)cc1C1CCC1 [9(36), 2-{(2R,4aR,5S,6S,7aS)-5-[(3-cyclobutyl-4-ethylphenoxy)methyl]-6-hydroxyoctahydrocyclopenta[b]pyran-2-yl}-1,3-thiazole-4-carboxylic acid]	3.5 nM	–
O=C(O)c1csc([C@H]2CC[C@@H]3[C@@H](COc4ccc5c(c4)CCCCC5)[C@@H](O)C[C@@H]3O2)n1 [9(33)]	1.6 nM	–
CCc1ccc(OC[C@@H]2[C@H]3CC[C@H](c4nc(C(=O)O)cs4)O[C@H]3C[C@@H]2O)cc1CC [9(23), 2-{(2R,4aR,5S,6S,7aS)-5-[(3,4-diethylphenoxy)methyl]-6-hydroxyoctahydrocyclopenta[b]pyran-2-yl}-1,3-thiazole-4-carboxylic acid]	1.6 nM	–
O=C(O)c1csc([C@H]2CC[C@@H]3[C@@H](COc4ccc(C5CC5)c(C5CC5)c4)[C@@H](O)C[C@@H]3O2)n1 [Example 9, 2-{(2R,4aR,5S,6S,7aS)-5-[(3,4-dicyclopropylphenoxy)methyl]-6-hydroxyoctahydrocyclopenta[b]pyran-2-yl}-1,3-thiazole-4-carboxylic acid]	2.8 nM	–
O=C(O)c1csc([C@H]2CC[C@@H]3[C@@H](COc4ccc5c(c4F)CCC5)[C@H](O)C[C@@H]3O2)n1 [1(19), 2-[(2R,4aR,5S,6R,7aS)-5-{[(4-fluoro-2,3-dihydro-1H-inden-5-yl)oxy]methyl}-6-hydroxyoctahydrocyclopenta[b]pyran-2-yl]-1,3-thiazole-4-carboxylic acid]	2.4 nM	–
CCc1cc(OC[C@@H]2[C@H]3CC[C@H](c4nc(C(=O)O)cs4)O[C@H]3C[C@H]2O)ccc1C [1(17), 2-{(2R,4aR,5S,6R,7aS)-5-[(3-ethyl-4-methylphenoxy)methyl]-6-hydroxyoctahydrocyclopenta[b]pyran-2-yl}-1,3-thiazole-4-carboxylic acid]	0.82 nM	–
CCc1ccc(OC[C@@H]2[C@H]3CC[C@H](c4nc(C(=O)O)cs4)O[C@H]3C[C@@H]2O)cc1C1CC1 [9(35), 2-{(2R,4aR,5S,6S,7aS)-5-[(3-cyclopropyl-4-ethylphenoxy)methyl]-6-hydroxyoctahydrocyclopenta[b]pyran-2-yl}-1,3-thiazole-4-carboxylic acid]	2.4 nM	–
Cc1cc(OC[C@@H]2[C@H]3CC[C@H](c4nc(C(=O)O)cs4)O[C@H]3C[C@H]2O)ccc1[N+](=O)[O-] [1(4), 2-{(2R,4aR,5S,6R,7aS)-6-hydroxy-5-[(3-methyl-4-nitrophenoxy)methyl]octahydrocyclopenta[b]pyran-2-yl}-1,3-thiazole-4-carboxylic acid]	0.5 nM	–
Cc1cc(OC[C@@H]2[C@H]3CC[C@H](c4nc(C(=O)O)cs4)O[C@H]3C[C@H]2O)ccc1Cl [1(5), 2-{(2R,4aR,5S,6R,7aS)-5-[(4-chloro-3-methylphenoxy)methyl]-6-hydroxyoctahydrocyclopenta[b]pyran-2-yl}-1,3-thiazole-4-carboxylic acid]	0.9 nM	–
